In patent US20200085705A1, “Method of Encapsulating Compounds” (AGENCY FOR SCIENCE, TECHNOLOGY AND RESEARCH, priority 2016, published 2020):

Assay: Titration of polyelectrolytes and ICs with MG (zeta potential, Dh, I/c)
Format: physicochemical
Conditions: titration of PAA-b-PEO, PArg and ICs with MG, 10 mM NaCl
Experimental: Dynamic (DLS) and static (SLS) light scattering measurements were performed with Brookhaven Instruments, 488 nm and 633 nm, 15 W Ion Laser System, equipped with Avalanche Photodiode Detector; DLS measurements were conducted at 90° detection angle. The light scattering titrations were performed with Malvern Zetasizer equipped with auto-titrator, at detection angle of 173°. Samples from loading experiments were analyzed with Shimadzu UV spectrophotometer (UV-3600).
MG was loaded into the ICs by simple mixing the respective solutions at predetermined ratios. FIG. 3 presents the results of titrations of the polyelectrolytes and ICs consisting of these polyelectrolytes with MG. Upon mixing, we observed no change in zeta potential except for slight increase in case of PArg at the beginning of titration. […] We observed small changes in hydrodynamic diameter (DO and normalized scattering intensity (I/c) of the aggregates, indicating bonding. This was later confirmed with NR studies.

chargeability of MG (zeta potential upon mixing): not chargeable
Structure (SMILES): COc1ccc(O[C@@H]2O[C@H](CO)[C@@H](O)[C@H](O)[C@H]2O)cc1 [MG, 4-methoxyphenyl β-D-glucopyranoside]
